Test results taken from paper PMC8704648 (Pharmaceutics, 2021).

Conditions: TG, oxidizing atmosphere

SMILES: COc1ccc2cc([C@H](C)C(=O)O)ccc2c1 [Naproxen, (+)-(S)-2-(6-Methoxynaphthalen-2-yl)propanoic acid]
- Tonset, the onset of the thermal degradation: 249.9 °C
